Read-outs that look alike come from different tables or passages of the source.
Experiments:
Human PTP1B = molecular target: T1, Human PTP1B (Homo sapiens, UniProt P18031); test: In vitro phosphatase activity assay (DiFMUP assay); type: biochemical
T1 construct: His6 (N); made in house; host or cells: E. coli BL21 DE3
T1 sequence (P18031 1-435): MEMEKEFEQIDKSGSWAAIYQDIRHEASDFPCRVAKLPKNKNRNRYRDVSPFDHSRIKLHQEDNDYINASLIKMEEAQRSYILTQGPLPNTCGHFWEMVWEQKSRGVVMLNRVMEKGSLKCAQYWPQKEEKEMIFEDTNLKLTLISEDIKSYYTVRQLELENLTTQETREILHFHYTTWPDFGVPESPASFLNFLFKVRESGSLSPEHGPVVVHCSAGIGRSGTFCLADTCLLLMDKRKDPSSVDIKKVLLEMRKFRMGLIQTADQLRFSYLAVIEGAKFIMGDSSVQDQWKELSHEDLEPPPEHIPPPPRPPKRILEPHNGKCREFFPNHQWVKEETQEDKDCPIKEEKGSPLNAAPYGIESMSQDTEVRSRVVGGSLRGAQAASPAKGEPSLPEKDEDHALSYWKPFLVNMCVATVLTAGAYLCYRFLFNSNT
From the text: To determine the value of CHBOs in drug discovery, we constructed a synthetically accessible library of CHBOs based on the substrate scope of the reaction we newly developed. […] To explore the relationship between inhibitor activity of 3ak against PTP1B and the stereochemistry, two enantiomers (S, S)-3ak and (R, R)-3ak were synthesized and evalutated in the DiFUMP assay (Figure a). […]
Protein expression and purification7: Human PTP1B construct was subcloned into pET28a(+) vector, which contains an N-terminal His6-tag. BL21 DE3 E. coli cells were transformed as follows: 2 µL of plasmid(100 ng/µL) and 200 µL of DE3 cells were incubated for 30 min on ice, a 45 second heat shock at […], 2 min on ice, recovery with 800 µL SOC for 1 h at 37 ℃ followed by plating on a Kanamycin agar plate (50µg/mL).One colony was picked and used to inoculate 10 mL of LB media supplemented with kanamycin (50µg/mL).When the culture reached OD600 = 0.6, 10mL were transferred to one liter of LB media supplemented with Kanamycin (50 µg/mL) and grown at 37 ℃ to an OD600 = 0.6. Media is transferred to a 16 ℃ incubator. Then, the media was supplemented with 500 µM Isopropyl β-D-1-thiogalactopyranoside (IPTG) at OD600 = 0.8 and incubated for 16 h. Cells were centrifuged (4000 rpm, 20 min) and liquid was decanted. Cells were resuspended in lysis buffer (50 mM HEPES, pH 7.4, 150 mM KCl, 5 mM MgCl2, 5% glycerol, 1 mM phenylmethane sulfonyl fluoride (PMSF), 2 mM 2-mercaptoethanol (β-met)). Cells were lysed in a cell crusher (pressure 1000 bar), the mixed products were collected, centrifuged (12000 rpm, 4°C, 20 min), and the supernatant was left to discard the precipitate. The nickel column was first equilibrated with equilibration solution, and then the protein supernatant was up-sampled twice to bind the protein. The proteins were then gradually eluted with imidazole (10, 20, 60, 200 mM imidazole).
The target protein-containing fractions confirmed by SDS PAGE were placed in […] MWCO protein ultrafiltration tubes and the imidazole were replaced with dialysis buffer (20 mM HEPES, 150 mM KCl, 1 mM MgCl2). After the imidazole was removed cleanly, an equal volume of glycerol was added as a protective solution. When concentration was determined to be greater than or equal to 1 mg /mL, protein was frozen with liquid nit rogen. Protein was then stored in a -80 ℃ freezer.
In Vitro Phosphatase Activity Assays8:Incubate 1 nM purified PTP1B protein with positive control or compound to be tested in reaction buffer (25 mM Bis-Tris propane pH 7.5, […]
50 mM NaCl, 2 mM EDTA, 2 mM DTT) for 10 min at 37°C in a total volume of 90 μL. Add 10 μL of substrate buffer containing DiFMUP (final concentration of 10 μM) to the reaction buffer […]
(§1) The fluorescence intensity at 455 nm was read using a multifunctional reader with 358 nm as the excitation light, and the measured fluorescence value was used to calculate the inhibition rate of the enzyme activity by the sample over the value of the blank wells. The IC50 values of the compounds were calculated by Graphpad Prism 7.0, using a non-linear fit of the inhibition rate to the concentration of the inhibitor. […]

MB231 cells = test: Cellular anti-cancer immunity assay (cancer cell growth inhibition with or without IFNγ, CCK8); type: cell-based; details: MB231 cell line; 0.5 ng/ml IFNγ or medium alone; 3 days
From the text: We further evaluated (S, S)-3ak with a cellular anticancer immunity assay. The assay measures the inhibition of cancer cell growth by compounds with or without cytokine IFNγ. , The synergy of testing compounds and IFNγ in inhibiting cancer cells implicates the testing compound contributes anticancer immunity. The synergy index is defined by the formula index = (IC50 ^IFNγ– – IC50 ^IFNγ+)/IC50 ^IFNγ+. […] In other words, we identified (S, S)-3ak as a promising PTP1B inhibitor, preparing for the coming hit-lead-candidate optimization.
as §1, with “50 mM NaCl, 2 mM EDTA, 2 mM DTT) for 10 min at 37°C in a total volume of 90 μL. […] The fluorescence” for “The fluorescence”
Cellular anti-cancer immunity assay9: MB231 cells were seeded at a density of 5000 cells per well in a 96-well plate and incubated at 37 °C. […] PTP1B inhibitors, including Osunprotafib as the positive control, were added, and cell confluence was monitored for 3 days. […]

[1] = DiFMUP assay at room temperature, positive control ABBV-CLS-484, negative control DMSO
[2] = PTP1B lC50 (μM), DiFMUP assay at room temperature, positive control ABBV-CLS-484, negative control DMSO
[3] = DiFMUP assay at room temperature, positive control ABBV-CLS-484, negative control DMSO, read-out: PTP1B lC50

SMILES: O=C1O[C@@H]([C@@]2(O)C(=O)Nc3ccccc32)C(c2ccccc2)=C1c1ccccc1 [6am]
- PTP1B lC50 (Human PTP1B; [1]): 4.03 ± 0.45 µM

SMILES: O=C1O[C@@H]([C@@]2(O)C(=O)N(Cc3ccccc3)c3ccc(Cl)cc32)C=C1c1ccccc1 [6j]
- PTP1B lC50 (Human PTP1B; [1]): 15.17 ± 1.02 µM

SMILES: O=C1OC(C2(O)C(=O)N(Cc3ccccc3)c3cccc(Br)c32)C=C1c1ccc2c(c1)OCO2 (stereo not drawn) [6ah]
- IC50 (Human PTP1B): 0.29 to 1.58 µM
- IC50 (Human PTP1B; [2]): 0.92 ± 0.18 µM

SMILES: Cc1ccc(C2=C[C@H]([C@@]3(O)C(=O)N(Cc4ccccc4)c4ccccc43)OC2=O)cc1 [6ab]
- IC50 (Human PTP1B; [3]): 6.68 ± 0.88 µM

SMILES: O=C1O[C@@H]([C@@]2(O)C(=O)Nc3ccccc32)C=C1c1ccccc1 [6b]
- PTP1B lC50 (Human PTP1B; [1]): 6.93 ± 0.77 µM

SMILES: O=C1O[C@@H]([C@@]2(O)C(=O)N(Cc3ccccc3)c3cccc(I)c32)C=C1c1ccccc1 [6f]
- PTP1B lC50 (Human PTP1B; [1]): 8.17 ± 1.06 µM

SMILES: O=C1O[C@@H]([C@@]2(O)C(=O)N(Cc3ccccc3)c3cccc(Br)c32)C=C1c1ccccc1 [6e]
- IC50 (Human PTP1B; [3]): 2.1 ± 0.31 µM

SMILES: O=C1O[C@H]([C@]2(O)C(=O)N(Cc3ccccc3)c3cccc(Br)c32)C=C1c1ccc2ccccc2c1 [(S, S)-3ak]
- IC50 (Human PTP1B): 0.81 ± 0.1 µM
- potency relative to the enantiomer (R, R)-3ak (Human PTP1B; DiFMUP assay): 3 fold
- IC50 against PTP1B (Human PTP1B; DiFMUP assay, values in text and figure): submicromolar
- synergy index = (IC50 IFNγ− – IC50 IFNγ+)/IC50 IFNγ+ (MB231 cells): 3.49

SMILES: COc1ccc(C2=C[C@H]([C@@]3(O)C(=O)N(Cc4ccccc4)c4cccc(Br)c43)OC2=O)cc1OC [6ai]
- PTP1B lC50 (Human PTP1B; [1]): 22.65 ± 0.75 µM

SMILES: Cc1ccc2c(c1)C(O)(C1C=C(c3ccccc3)C(=O)O1)C(=O)N2Cc1ccccc1 (stereo not drawn) [6k]
- IC50 (Human PTP1B; read-out: PTP1B lC50, DiFMUP assay at room temperature, positive control ABBV-CLS-484, negative control DMSO): 9.08 ± 0.12 µM

SMILES: O=C1O[C@@H]([C@@]2(O)C(=O)N(Cc3ccccc3)c3ccccc32)C=C1c1ccccc1 [6a]
- IC50 (Human PTP1B): 10 to 30 µM
- IC50 (Human PTP1B; [2]): 29.7 ± 0.56 µM

SMILES: COc1ccc2c(c1)[C@@](O)([C@H]1C=C(c3ccccc3)C(=O)O1)C(=O)N2Cc1ccccc1 [6l]
- PTP1B lC50 (Human PTP1B; [1]): 21.65 ± 1.48 µM

SMILES: COc1ccc(C2=C[C@H]([C@@]3(O)C(=O)N(Cc4ccccc4)c4cccc(Br)c43)OC2=O)cc1 [6ae]
- PTP1B lC50 (Human PTP1B; [1]): 11.17 ± 2.87 µM

SMILES: Cc1ccc2c(c1Br)[C@@](O)([C@H]1C=C(c3ccccc3)C(=O)O1)C(=O)N2Cc1ccccc1 [6g]
- PTP1B lC50 (Human PTP1B; [1]): 8.13 ± 0.06 µM

SMILES: O=C1O[C@@H]([C@@]2(O)C(=O)N(Cc3ccccc3)c3ccc(Cl)c(Cl)c32)C=C1c1ccccc1 [6i]
- IC50 (Human PTP1B; [3]): 3.02 ± 0.22 µM

SMILES: CC1CCC(C(C)C)C(OC(=O)c2ccc(C3=C(c4ccccc4)C(=O)OC3C3(O)C(=O)Nc4ccccc43)cc2)C1 (stereo not drawn) [6au]
- IC50 (Human PTP1B): 0.29 to 1.58 µM
- IC50 (Human PTP1B; [2]): 1.56 ± 0.24 µM

SMILES: COc1ccc(C2=C[C@H]([C@@]3(O)C(=O)N(Cc4ccccc4)c4ccccc43)OC2=O)cc1 [6ad]
- PTP1B lC50 (Human PTP1B; [1]): 7.82 ± 1.44 µM

SMILES: COc1ccc2c(c1)N(Cc1ccccc1)C(=O)[C@]2(O)[C@H]1C=C(c2ccccc2)C(=O)O1 [6p]
- PTP1B lC50 (Human PTP1B; [1]): 8.23 ± 0.91 µM

SMILES: Cc1ccc(C2=C[C@H]([C@@]3(O)C(=O)N(Cc4ccccc4)c4cccc(Br)c43)OC2=O)cc1 [6ac]
- PTP1B lC50 (Human PTP1B; [1]): 9.13 ± 0.62 µM

SMILES: CC1(C)[C@H]2CC=C(CCOC(=O)c3ccc(CN4C(=O)[C@](O)([C@H]5C=C(c6ccccc6)C(=O)O5)c5c(Br)cccc54)cc3)[C@@H]1C2 [6u]
- PTP1B lC50 (Human PTP1B; [1]): 0.29 ± 0.02 µM

SMILES: O=C1O[C@@H]([C@@]2(O)C(=O)N(Cc3ccccc3)c3cccc(Br)c32)C=C1c1ccc2ccccc2c1 [(R, R)-3ak]
- IC50 (Human PTP1B): 3.31 ± 0.2 µM

SMILES: O=C1O[C@@H]([C@@]2(O)C(=O)N(Cc3ccc(C(=O)NC45CC6CC(CC(C6)C4)C5)cc3)c3cccc(Br)c32)C=C1c1ccccc1 [6s]
- PTP1B lC50 (Human PTP1B; [1]): 2.11 ± 0.22 µM

SMILES: O=C1O[C@@H]([C@@]2(O)C(=O)N(Cc3ccccc3)c3cccc(Cl)c32)C=C1c1ccccc1 [6d]
- IC50 (Human PTP1B): 10 to 30 µM
- IC50 (Human PTP1B; [2]): 17.8 ± 1.2 µM

Reference: article PMC12203432, “Multicatalysis-Enabled Multicomponent Reactions Generate a PTP1B Inhibitor” (ACS Central Science, 2025)
